Counter-ions that a name gives are not always drawn. Like-named read-outs stand apart in the source and are kept apart here.

One test concerns MV-4-11 cells. The experiment in a line: Antiproliferation assay MV-4-11 (Assay 7). The test is classed as cell-based. As to conditions: Homo sapiens, MV4-11, 72 h, CellTiter-Glo, read-out: Antiproli MV-4-11 IC50 median. The procedure:
(§1) Assessment of the Anti-Proliferative Effect of Compounds in Different Cell Lines
(§2) The impact of compounds on the proliferation of different cell lines was assessed using the CellTiter-Glo® Luminescent Cell Viability reagent from Promega (G7573).
(§3) In parallel, cells were plated in a reference (day 0) plate for time zero determination. Cells were incubated in a humidified incubator at 37° C. overnight.
(§4) Rim wells were excluded. The cells were incubated for 72 h hours in a humidified incubator at 37° C. The day 0 plate was measured by adding 30 μL/well of CTG solution (CellTiter-Glo® Luminescent Cell Viability reagent, Promega G7573) to time zero wells in the reference plate followed by a 10 minutes incubation and luminescence reading at 0.1 ms. using the PHERAstar FS microplate reader (BMG Labtech).
(§5) After 72 h incubation, the treated plates were measured in the same way as the day 0 plate mentioned above. The Bella DRC Master Sheet was used to calculate IC50s, with CI=day 0 values and C0=DMSO control values.
(ATP-based viability assays read luminescence as a measure of living cells.)

In test [1] the target is T1, MCL-1 (Homo sapiens (Human), UniProt Q07820, K194A/K197A/R201A). The experiment in a line: Protein-protein interaction assay MCL-1/Noxa BH3 peptide (MCL-1 assay, TR-FRET). Format: binding. As to conditions: MCL-1 Assay IC50 (median). In outline: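 IC50 came from a 4-parameter regression of the 665/620 nm emission ratio, normalized to DMSO controls. The mix held 1 nM MBP-fused MCL-1 (residues 173-321), a biotin-Noxa BH3 tracer and compound in Tris buffer pH 7, incubated 10 min plus 1 h at 22° C., then overnight at 4° C.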
Target sequence in this assay (Q07820 whole entry, looked up, stated change not applied, the tested form may be a part): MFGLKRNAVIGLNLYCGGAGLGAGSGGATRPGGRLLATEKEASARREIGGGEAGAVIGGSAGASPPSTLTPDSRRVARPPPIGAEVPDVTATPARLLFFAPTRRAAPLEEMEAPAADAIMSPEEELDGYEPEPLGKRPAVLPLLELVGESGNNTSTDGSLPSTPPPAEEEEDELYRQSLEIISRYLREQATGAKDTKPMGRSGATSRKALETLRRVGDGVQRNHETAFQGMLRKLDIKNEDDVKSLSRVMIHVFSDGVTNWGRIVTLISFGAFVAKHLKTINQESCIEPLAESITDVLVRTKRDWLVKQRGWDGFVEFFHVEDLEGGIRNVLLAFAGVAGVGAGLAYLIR

For test [2], the target named is T1, MCL-1. The experiment in a line: Protein-compound interaction assay (SPR assay, Assay 9). As to conditions: for Kd: KD (geometric mean), SPR, 25° C.; for koff: read-out: koff (geometric mean), SPR, 25° C.; for kon: read-out: kon (geometric mean), SPR, 25° C. Format: binding. From the text: Assay 9 Protein-Compound Interaction Assay (SPR Assay)
The ability of the compounds described in this invention to bind to MCL-1 may be determined using surface plasmon resonance (SPR). This allows for the quantification of binding in terms of the equilibrium dissociation constant (KD [M]), as well as association and dissociation rate constants (kon [1/Ms] and koff [1/s], respectively). The measurements may be performed using Biacore® T200 or Biacore® S200 instruments (GE Healthcare).
Briefly, carboxymethylated dextran biosensor chips (Series S Sensor Chip CMS, GE Healthcare) were activated with 1-ethyl-3-(3-dimethylaminopropyl)-carbodiimide hydrochloride (EDC) and N-hydroxysuccinimide (NHS) according to the supplier's instructions. MBP-MCL-1 was diluted in 1×PBS-P+ (GE Healthcare) and injected on the activated chip surface. Subsequently, a solution of 1 M ethanolamine-HCl (GE Healthcare) was injected to block unreacted groups, resulting in approximately 400-2500 response units (RU) of immobilized protein. A reference surface was generated by treatment with NHS-EDC and ethanolamine-HCl. […] Compounds were injected for 60 s followed by a dissociation time of up to 1000 s.
The double-referenced sensorgrams were fit to a simple reversible Langmuir 1:1 reaction mechanism as implemented in the Biacore® T200 and S200 evaluation software (T200 evaluation software version 2.0 and S200 evaluation software version 1.0, GE Healthcare).
Target sequence in this assay (Q07820 whole entry K194A/K197A/R201A, looked up, the tested form may be a part): as the sequence (Q07820 whole entry, looked up, stated change not applied, the tested form may be a part) above, with K194A, K197A, R201A counted along it
For orientation: Surface plasmon resonance follows binding to a sensor surface in real time, without labels.

The test system of the next test is DMS-114 cells. The experiment in a line: Antiproliferation assay DMS-114 (Assay 7). The test is classed as cell-based. As to conditions: Homo sapiens, read-out: Antiproli DM-S114 IC50 median. The procedure:
as §1, §2, §3, §4, §5

In another test the test system is SNU-389 cells. The experiment in a line: Antiproliferation assay SNU-389 (Assay 7). Format: cell-based. As to conditions: 72 h, read-out: Antiproli SNU-389 IC50. In outline: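 Growth inhibition is determined from ATP luminescence (CellTiter-Glo) following 72 h incubation with compound. Time-zero cells are measured the same way for baseline, and IC50s are referenced to DMSO controls.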

A word on the IC50: it is the concentration needed to halve the response being measured. For the compound `Cc1c2c(nn1C)C(CCN1CCOCC1)OCCCCn1c(C(=O)O)c(CCCOc3cccc4ccccc34)c3ccc(Cl)c-2c31` (racemic) [Example 13, (rac)-4-chloro-2,3-dimethyl-15-[2-(morpholin-4-yl)ethyl]-7-{3-[(naphthalen-1-yl)oxy]propyl}-2,10,11,12,13,15-hexahydropyrazolo[4′,3′:9,10][1,6]oxazacycloundecino[8,7,6-hi]indole-8-carboxylic Acid], the values for the IC50 in the test on MV-4-11 cells and against MCL-1 [1] were 220 nM and 1.6 nM, respectively.

One may read the Kd as a measure of binding affinity in units of concentration. High values mean weaker binding, low ones tighter binding. What is called koff is the rate constant with which the complex falls apart. Usually kon stands for the rate constant with which the complex forms. With `Cc1c2c(nn1C)C(CCN1CCOCC1)OCCCCn1c(C(=O)O)c(CCCOc3cccc4cc(F)ccc34)c3ccc(Cl)c-2c31` (single isomer, unassigned; enantiomer 1) [Example 17, 4-chloro-7-{3-[(6-fluoronaphthalen-1-yl)oxy]propyl}-2,3-dimethyl-15-[2-(morpholin-4-yl)ethyl]-2,10,11,12,13,15-hexahydropyrazolo[4′,3′:9,10][1,6]oxazacycloundecino[8,7,6-hi]indole-8-carboxylic Acid—N-ethylethanamine (Enantiomer 1)], on MCL-1 [2], binding was put at a Kd of 0.77 nM, the koff stood at 0.015 s⁻¹ and the kon is 2e+07 M⁻¹ s⁻¹.

Regarding `CCC1OCCCCn2c(C(=O)O)c(CCCOc3cccc4ccccc34)c3ccc(Cl)c(c32)-c2c1nn(C)c2C` (single isomer, unassigned; enantiomer 1) [Example 29, (+)-4-chloro-15-ethyl-2,3-dimethyl-7-{3-[(naphthalen-1-yl)oxy]propyl}-2,10,11,12,13,15-hexahydropyrazolo[4′,3′:9,10][1,6]oxazacycloundecino[8,7,6-hi]indole-8-carboxylic Acid—N-ethylethanamine Salt (Enantiomer 1)], at MCL-1 [2], binding was put at a Kd of 8.3 nM, the koff was determined as 0.014 s⁻¹ and the kon was 1.7e+06 M⁻¹ s⁻¹.

As for `Cc1c2c(nn1C)C(CCO)OCCCCn1c(C(=O)O)c(CCCOc3cccc4ccccc34)c3ccc(Cl)c-2c31` (single isomer, unassigned; enantiomer 1) [Example 31, (+)-4-chloro-15-(2-hydroxyethyl)-2,3-dimethyl-7-{3-[(naphthalen-1-yl)oxy]propyl}-2,10,11,12,13,15-hexahydropyrazolo[4′,3′:9,10][1,6]oxazacycloundecino[8,7,6-hi]indole-8-carboxylic Acid (Enantiomer 1)], at MCL-1 [2], the affinity, expressed as Kd, was 1.8 nM; the koff was determined as 0.008 s⁻¹; the on-rate (kon) was determined as 4.4e+06 M⁻¹ s⁻¹. Also, on MCL-1 [1], it took 0.26 nM to reach half-maximal inhibition (IC50).

As for `CCc1c2c(nn1C)C(CCOC)OCCCCn1c(C(=O)O)c(CCCOc3cccc4cc(F)ccc34)c3ccc(Cl)c-2c31` (single isomer, unassigned; enantiomer 1) [Example 42, (+)-4-chloro-3-ethyl-7-{3-[(6-fluoronaphthalen-1-yl)oxy]propyl}-15-(2-methoxyethyl)-2-methyl-2,10,11,12,13,15-hexahydropyrazolo[4′,3′:9,10][1,6]oxazacycloundecino[8,7,6-hi]indole-8-carboxylic Acid—N-ethylethanamine Salt (Enantiomer 1)], at MCL-1 [2], the Kd is 2.8 nM, the koff worked out at 0.0032 s⁻¹ and the kon turned out to be 1.2e+06 M⁻¹ s⁻¹. The IC50 with DMS-114 cells (DMS-114, 72 h) worked out at 156 nM. The IC50 in the test with SNU-389 cells is 270 nM.

As for `CCc1c2c(nn1C)C(CCO)OCCCCn1c(C(=O)O)c(CCCOc3cccc4cc(F)ccc34)c3ccc(Cl)c-2c31` (single isomer, unassigned; enantiomer 1) [Example 45, (+)-4-chloro-3-ethyl-7-{3-[(6-fluoronaphthalen-1-yl)oxy]propyl}-15-(2-hydroxyethyl)-2-methyl-2,10,11,12,13,15-hexahydropyrazolo[4′,3′:9,10][1,6]oxazacycloundecino[8,7,6-hi]indole-8-carboxylic Acid (Enantiomer 1)], the Kd on MCL-1 [2] came to 2.3 nM. In addition, the koff on MCL-1 [2] came to 0.0068 s⁻¹. For the same compound, the kon at MCL-1 [2] came to 3e+06 M⁻¹ s⁻¹. For the same compound, the IC50 was 298 nM in the test on DMS-114 cells (DMS-114 cells, 72 h, CellTiter-Glo); 0.55 nM on MCL-1 [1]; 350 nM in the test with SNU-389 cells (CellTiter-Glo).

On to `CCc1c2c(nn1C)C(CCC1CCOCC1)OCCCCn1c(C(=O)O)c(CCCOc3cccc4cc(F)ccc34)c3ccc(Cl)c-2c31` (single isomer, unassigned; enantiomer 1) [Example 61, 4-chloro-3-ethyl-7-{3-[(6-fluoronaphthalen-1-yl)oxy]propyl}-2-methyl-15-[2-(oxan-4-yl)ethyl]-2,10,11,12,13,15-hexahydropyrazolo[4′,3′:9,10][1,6]oxazacycloundecino[8,7,6-hi]indole-8-carboxylic Acid (Enantiomer 1)], for which, at MCL-1 [2], the Kd is 1.3 nM, the koff was 0.0021 s⁻¹ and the kon was 1.6e+06 M⁻¹ s⁻¹. This compound gave an IC50 against MCL-1 [1] of 0.46 nM.

The compound `Cc1c2c(nn1C)C(CCO)OCCCCn1c(C(=O)O)c(CCCOc3cccc4ccccc34)c3ccc(Cl)c-2c31` (single isomer, unassigned; enantiomer 2) [Example 32, (−)-4-chloro-15-(2-hydroxyethyl)-2,3-dimethyl-7-{3-[(naphthalen-1-yl)oxy]propyl}-2,10,11,12,13,15-hexahydropyrazolo[4′,3′:9,10][1,6]oxazacycloundecino[8,7,6-hi]indole-8-carboxylic Acid (Enantiomer 2)] gave an IC50 at MCL-1 [1] of 75 nM.

`CCc1c2c(nn1C)C(CCO)OCCCCn1c(C(=O)O)c(CCCOc3cccc4cc(F)ccc34)c3ccc(Cl)c-2c31` (single isomer, unassigned; enantiomer 2) [Example 46, (−)-4-chloro-3-ethyl-7-{3-[(6-fluoronaphthalen-1-yl)oxy]propyl}-15-(2-hydroxyethyl)-2-methyl-2,10,11,12,13,15-hexahydropyrazolo[4′,3′:9,10][1,6]oxazacycloundecino[8,7,6-hi]indole-8-carboxylic Acid (Enantiomer 2)] had an IC50 on MCL-1 [1] of 36 nM.

For `CCc1c2c(nn1C)C(CCN1CCOCC1)OCCCCn1c(C(=O)O)c(CCCOc3cccc4cc(F)ccc34)c3ccc(F)c-2c31` (single isomer, unassigned; enantiomer 2) [Example 51, (−)-3-ethyl-4-fluoro-7-{3-[(6-fluoronaphthalen-1-yl)oxy]propyl}-2-methyl-15-[2-(morpholin-4-yl)ethyl]-2,10,11,12,13,15-hexahydropyrazolo[4′,3′:9,10][1,6]oxazacycloundecino[8,7,6-hi]indole-8-carboxylic Acid (Enantiomer 2)], 60 nM corresponded to half-maximal inhibition against MCL-1 [1] (IC50).

At MCL-1 [1], `CCc1c2c(nn1C)C(CCC1CCOCC1)OCCCCn1c(C(=O)O)c(CCCOc3cccc4cc(F)ccc34)c3ccc(Cl)c-2c31` (single isomer, unassigned; enantiomer 2) [Example 62, (−)-4-chloro-3-ethyl-7-{3-[(6-fluoronaphthalen-1-yl)oxy]propyl}-2-methyl-15-[2-(oxan-4-yl)ethyl]-2,10,11,12,13,15-hexahydropyrazolo[4′,3′:9,10][1,6]oxazacycloundecino[8,7,6-hi]indole-8-carboxylic Acid (Enantiomer 2)] displayed an IC50 of 120 nM.

As for `Cc1c2c(nn1C)C(CCN1CCOCC1)OCCCCn1c(C(=O)O)c(CCCOc3cccc4ccccc34)c3cccc-2c31` (single isomer, unassigned; stereoisomer 2) [Example 6, 2,3-dimethyl-15-[2-(morpholin-4-yl)ethyl]-7-[3-(naphthalen-1-yloxy)propyl]-2,10,11,12,13,15-hexahydropyrazolo[4′,3′:9,10][1,6]oxazacycloundecino[8,7,6-hi]indole-8-carboxylic Acid (Stereoisomer 2)], on MCL-1 [1], the IC50 stood at 51 nM.

These data come from patent publication US11440923B2, “Substituted macrocyclic indole derivatives” (Bayer Aktiengesellschaft, priority 2017, dated 2022).
